Where a SMILES comes first, the peptide text is derived from it. Bridges are numbered along the chain shown (N, C = ends). Roman numbers before positions name the chains, in order.
The compounds below were run on IOBA-NHC cells. Settings: 24 h.
Type: cell-based, human
Description: IOBA-NHC cells were cultured under standard conditions (humidified atmosphere of 5% CO2 at 37° C.) in DMEM/F12 supplemented with 1 μg/ml bovine pancreas insulin, 2 ng/ml mouse epidermal growth factor, 0.1 μg/ml cholera toxin, […] hydrocortisone, 10% fetal bovine serum (FBS), 50 UI/ml penicillin, and 50 UI/ml streptomycin. Cells from passages 50-80 were used in all experiments. Every day, normal culture development was observed by phase-contrast microscopy. Cells were removed by gentle trypsin incubation at confluence and counted. They were seeded into 96 well culture plates (Corning, Schiphol-Rijk, The Netherlands) for microtitration analysis of flow cytotoxicity assay (˜10,000 cells/well). Cultures were kept at 37° C. for 24 h. Subconfluent cells (culture surface covering nearly 70%) were then exposed to various peptide concentrations (0.22-225 μM). Cytotoxicity was measured periodically using MultiTox-Fluor Multiplex assay kit (Promega, Wis., USA) by measuring the AFC fluorescence (λex=485 and λem=520 nm).
`CC(C)[C@H](NC(=O)[C@H](CCCCN)NC(=O)[C@H](CCCNC(=N)N)NC(=O)CNC(=O)[C@@H](N)CCCNC(=N)N)C(=O)N[C@@H](C)C(=O)N[C@@H](CCCNC(=N)N)C(=O)N[C@@H](CCCNC(=N)N)C(=O)NCCCC[C@H](NC(=O)[C@H](CCCNC(=N)N)NC(=O)[C@H](CCCNC(=N)N)NC(=O)[C@H](C)NC(=O)[C@@H](NC(=O)[C@H](CCCCN)NC(=O)[C@H](CCCNC(=N)N)NC(=O)CNC(=O)[C@@H](N)CCCNC(=N)N)C(C)C)C(=O)NCCCC[C@H](NC(=O)[C@H](CCCCNC(=O)[C@H](CCCNC(=N)N)NC(=O)[C@H](CCCNC(=N)N)NC(=O)[C@H](C)NC(=O)[C@@H](NC(=O)[C@H](CCCCN)NC(=O)[C@H](CCCNC(=N)N)NC(=O)CNC(=O)[C@@H](N)CCCNC(=N)N)C(C)C)NC(=O)[C@H](CCCNC(=N)N)NC(=O)[C@H](CCCNC(=N)N)NC(=O)[C@H](C)NC(=O)[C@@H](NC(=O)[C@H](CCCCN)NC(=O)[C@H](CCCNC(=N)N)NC(=O)CNC(=O)[C@@H](N)CCCNC(=N)N)C(C)C)C(=O)N[C@@H](CCCCN)C(=O)O` [Peptide B4010-V6A] (I: H-RGRKVARRKKK-OH / II: H-RGRKVARRK / III: H-RGRKVARR / IV: H-RGRKVARR; amide I:9-IV:C, I:10-II:C, II:9-III:C) was tested, and the EC50 was > 225 µM.
In the case of `CC(C)[C@H](NC(=O)[C@H](CCCCN)NC(=O)[C@H](CCCNC(=N)N)NC(=O)CNC(=O)[C@@H](N)CCCNC(=N)N)C(=O)N[C@H](C(=O)N[C@@H](CCCNC(=N)N)C(=O)N[C@@H](C)C(=O)NCCCC[C@H](NC(=O)[C@H](C)NC(=O)[C@H](CCCNC(=N)N)NC(=O)[C@@H](NC(=O)[C@@H](NC(=O)[C@H](CCCCN)NC(=O)[C@H](CCCNC(=N)N)NC(=O)CNC(=O)[C@@H](N)CCCNC(=N)N)C(C)C)C(C)C)C(=O)NCCCC[C@H](NC(=O)[C@H](CCCCNC(=O)[C@H](C)NC(=O)[C@H](CCCNC(=N)N)NC(=O)[C@@H](NC(=O)[C@@H](NC(=O)[C@H](CCCCN)NC(=O)[C@H](CCCNC(=N)N)NC(=O)CNC(=O)[C@@H](N)CCCNC(=N)N)C(C)C)C(C)C)NC(=O)[C@H](C)NC(=O)[C@H](CCCNC(=N)N)NC(=O)[C@@H](NC(=O)[C@@H](NC(=O)[C@H](CCCCN)NC(=O)[C@H](CCCNC(=N)N)NC(=O)CNC(=O)[C@@H](N)CCCNC(=N)N)C(C)C)C(C)C)C(=O)N[C@@H](CCCCN)C(=O)O)C(C)C` [Peptide B4010-R8A] (I: H-RGRKVVRAKKK-OH / II: H-RGRKVVRAK / III: H-RGRKVVRA / IV: H-RGRKVVRA; amide I:9-IV:C, I:10-II:C, II:9-III:C), the EC50 is reported as > 237 µM.
Compound `CC(C)[C@H](NC(=O)[C@H](CCCCN)NC(=O)[C@H](CCCNC(=N)N)NC(=O)[C@H](C)NC(=O)[C@@H](N)CCCNC(=N)N)C(=O)N[C@H](C(=O)N[C@@H](CCCNC(=N)N)C(=O)N[C@@H](CCCNC(=N)N)C(=O)NCCCC[C@H](NC(=O)[C@H](CCCNC(=N)N)NC(=O)[C@H](CCCNC(=N)N)NC(=O)[C@@H](NC(=O)[C@@H](NC(=O)[C@H](CCCCN)NC(=O)[C@H](CCCNC(=N)N)NC(=O)[C@H](C)NC(=O)[C@@H](N)CCCNC(=N)N)C(C)C)C(C)C)C(=O)NCCCC[C@H](NC(=O)[C@H](CCCCNC(=O)[C@H](CCCNC(=N)N)NC(=O)[C@H](CCCNC(=N)N)NC(=O)[C@@H](NC(=O)[C@@H](NC(=O)[C@H](CCCCN)NC(=O)[C@H](CCCNC(=N)N)NC(=O)[C@H](C)NC(=O)[C@@H](N)CCCNC(=N)N)C(C)C)C(C)C)NC(=O)[C@H](CCCNC(=N)N)NC(=O)[C@H](CCCNC(=N)N)NC(=O)[C@@H](NC(=O)[C@@H](NC(=O)[C@H](CCCCN)NC(=O)[C@H](CCCNC(=N)N)NC(=O)[C@H](C)NC(=O)[C@@H](N)CCCNC(=N)N)C(C)C)C(C)C)C(=O)N[C@@H](CCCCN)C(=O)O)C(C)C` [Peptide B4010-G2A] (I: H-RARKVVRRKKK-OH / II: H-RARKVVRRK / III: H-RARKVVRR / IV: H-RARKVVRR; amide I:9-IV:C, I:10-II:C, II:9-III:C) has an EC50 of 110 µM.

From patent publication US20150225454A1, “TETRABRANCHED PEPTIDES AND ANALOGUES AS A NEW CLASS OF ANTIMICROBIALS AND THEIR PREPARATION THEREOF” (priority 2012, published 2015)
